Experimental data as given in ChEMBL document CHEMBL1136667, “Inhibitors of Abeta production: solid-phase synthesis and SAR of alpha-hydroxycarbonyl derivatives” (Bioorg Med Chem Lett, 2003).

The compounds below were run against Gamma-secretase (assay: Inhibition of amyloid beta protein production in transfected H4 (neuroglioma) cells expressing […] constructs.).
Type: functional, cell-based, Homo sapiens
Compound `CC(C)CCC(=O)N[C@@H](CC(C)C)C(=O)N[C@@H](CC1CCCCC1)[C@@H](O)C(=O)c1ccccc1` has an IC50 of 4500 nM.
Compound `CCOC(=O)[C@H](O)[C@H](CC1CCCCC1)NC(=O)[C@H](CC(C)C)NC(=O)Cc1ccccc1` has an IC50 of 1600 nM.
Compound `CCOC(=O)[C@H](O)[C@H](CC1CCCCC1)NC(=O)[C@@H](NC(=O)/C=C/c1ccccc1)C(C)C` has an IC50 of 5000 nM.
With `CCOC(=O)[C@H](O)[C@H](CC1CCCCC1)NC(=O)[C@@H](NC(=O)Cc1ccccc1)C(C)C` the IC50 was 3400 nM.
In the case of `CC(=O)[C@H](O)[C@H](CC1CCCCC1)NC(=O)[C@H](CC(C)C)NC(=O)Cc1cc(F)cc(F)c1`, the IC50 is reported as 180 nM.
In the case of `CCOC(=O)[C@H](O)[C@H](CC1CCCCC1)NC(=O)[C@H](NC(=O)Cc1ccccc1)C(C)C`, the IC50 is reported as > 25000 nM.
Compound `CCOC(=O)[C@H](O)[C@H](CC1CCCCC1)NC(=O)[C@H](Cc1ccccc1)NC(=O)Cc1ccccc1` has an IC50 of 15000 nM.
`CC(=O)[C@H](O)[C@H](CC1CCCCC1)NC(=O)[C@H](CC(C)C)NC(=O)CCC(C)C` gave an IC50 of 620 nM.
For `CC(C)C[C@H](NC(=O)Cc1cc(F)cc(F)c1)C(=O)N[C@@H](CC1CCCCC1)[C@@H](O)C(=O)Cc1ccccc1`, the IC50 was 160 nM.
`CCOC(=O)[C@H](O)[C@H](CC1CCCCC1)NC(=O)[C@H](CC(C)C)NC(=O)Cc1cc(F)cc(F)c1` showed an IC50 of 450 nM.
Work on `CCOC(=O)[C@H](O)[C@H](CC1CCCCC1)NC(=O)[C@@H](NC(=O)Cc1ccccc1F)C(C)C` yielded an IC50 of 17000 nM.
`CC(C)CCC(=O)N[C@@H](CC(C)C)C(=O)N[C@@H](CC1CCCCC1)[C@@H](O)C(=O)Cc1ccccc1` gave an IC50 of 300 nM.
In the case of `CCOC(=O)[C@H](O)[C@H](CC1CCCCC1)NC(=O)[C@@H](NC(=O)C(=O)c1ccccc1)C(C)C`, the IC50 is reported as 3300 nM.
In the case of `CCCC(=O)[C@H](O)[C@H](CC1CCCCC1)NC(=O)[C@H](CC(C)C)NC(=O)CCC(C)C`, the IC50 is reported as 580 nM.
With `CC(=O)[C@H](O)[C@H](CC1CCCCC1)NC(=O)[C@H](CC(C)C)NC(=O)Cc1ccccc1` the IC50 was 900 nM.
`CCOC(=O)[C@H](O)[C@H](CC1CCCCC1)NC(=O)[C@@H](NC(=O)c1ccccc1)C(C)C` was tested, and the IC50 was > 25000 nM.
`CCOC(=O)[C@H](O)[C@H](CC1CCCCC1)NC(=O)[C@H](CC(C)C)NC(=O)CCC(C)C` gave an IC50 of 1500 nM.
`CC(C)C[C@H](NC(=O)Cc1ccccc1)C(=O)N[C@@H](CC1CCCCC1)[C@@H](O)C(=O)Cc1ccccc1` showed an IC50 of 400 nM.
Compound `CC(C)C[C@H](NC(=O)Cc1cccc(F)c1)C(=O)N[C@@H](CC1CCCCC1)[C@@H](O)C(=O)Cc1ccccc1` has an IC50 of 400 nM.
Compound `CC(C)CCC(=O)N[C@@H](CC(C)C)C(=O)N[C@@H](CC1CCCCC1)[C@@H](O)C(=O)C(C)C` has an IC50 of 550 nM.
`CCOC(=O)[C@H](O)[C@H](CC1CCCCC1)NC(=O)[C@H](CC(C)C)NC(=O)Cc1ccc(F)cc1` showed an IC50 of 1800 nM.
With `CC(C)C[C@H](NC(=O)Cc1ccccc1)C(=O)N[C@@H](CC1CCCCC1)[C@@H](O)C(=O)c1ccccc1` the IC50 was 900 nM.
`CCCC(=O)[C@H](O)[C@H](CC1CCCCC1)NC(=O)[C@H](CC(C)C)NC(=O)Cc1ccccc1` was tested, and the IC50 was 600 nM.
`CCOC(=O)[C@H](O)[C@H](CC1CCCCC1)NC(=O)[C@H](CC(C)C)NC(=O)Cc1cccc(F)c1` was tested, and the IC50 was 920 nM.
`CCOC(=O)[C@H](O)[C@H](CC1CCCCC1)NC(=O)[C@@H](NC(=O)C1(c2ccccc2)CC1)C(C)C` was tested, and the IC50 was > 25000 nM.
With `CC(C)C[C@H](NC(=O)Cc1ccccc1)C(=O)N[C@@H](CC1CCCCC1)[C@@H](O)C(=O)O` the IC50 was 15000 nM.
